For data set [1], the target named is T1, TGF-beta receptor type-1 (Homo sapiens, UniProt P36897).
T1 sequence (P36897 whole entry): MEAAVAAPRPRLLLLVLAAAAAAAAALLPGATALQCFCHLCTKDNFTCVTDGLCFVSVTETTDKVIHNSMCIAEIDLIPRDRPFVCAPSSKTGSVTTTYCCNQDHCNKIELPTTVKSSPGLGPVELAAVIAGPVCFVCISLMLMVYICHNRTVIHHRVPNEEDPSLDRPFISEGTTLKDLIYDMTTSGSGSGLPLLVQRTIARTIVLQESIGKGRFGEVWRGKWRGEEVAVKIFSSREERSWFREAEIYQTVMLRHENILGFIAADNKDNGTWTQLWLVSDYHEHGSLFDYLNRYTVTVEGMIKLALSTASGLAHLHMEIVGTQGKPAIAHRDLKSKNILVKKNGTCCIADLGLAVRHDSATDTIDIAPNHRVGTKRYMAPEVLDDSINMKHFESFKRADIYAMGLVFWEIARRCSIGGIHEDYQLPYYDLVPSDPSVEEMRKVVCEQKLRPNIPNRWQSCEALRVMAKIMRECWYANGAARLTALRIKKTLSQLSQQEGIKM
As to the kind of experiment: Inhibition of 6His-tagged human ALK5 expressed in baculovirus-infected SF21 cells after 30 mins by fluorescence polarization assay.

Data set [2] addresses T1, TGF-beta receptor type-1. The format is cell-based, MDA-MB-468.
Description: Inhibition of ALK5 in human MDA-MB-468 cells assessed as inhibition of nuclear translocation of GFP-2/Smad2 fusion reporter gene after 90 mins by Hoechst 3342 staining-based cellomics arrayscan imaging analysis
Data set [3] is described as follows: Octanol-phosphate buffered saline partition coefficient, log D at pH 7.4.
The nature of data set [4]: in vivo. The conditions noted are these: Han Wistar, rat, po, 5 umol/kg.
Description: Oral bioavailability in Han Wistar rat at 5 umol/kg
The nature of data set [5]: in vivo. The conditions noted are these: Han Wistar, rat, plasma, po, 5 umol/kg.
Description: AUC in Han Wistar rat at 5 umol/kg, po
The nature of data set [6]: Clearance in Han Wistar rat at 5 umol/kg, po. The conditions noted are these: in vivo, iv.
Setting [7] is: octanol/phosphate buffered saline.

The IC50 is the concentration at which inhibition is half-maximal. A high value points to a need for much substance. Usually logD stands for the decadic logarithm of the distribution of all forms, ionised or not, between an organic phase and buffer at a given pH. High values mean a more lipophilic compound, low ones a more hydrophilic compound. In general, bioavailability refers to the share of a dose that reaches the circulation, judged against a reference dose that is usually intravenous. Lower therefore signals little systemic uptake. What is called AUC is concentration integrated over time. Read a high AUC as more exposure.

As for `COc1cc(Nc2cc(Oc3cccnc3)ccn2)cc(OC)c1OC`, the IC50 was 227 nM against TGF-beta receptor type-1 [1] and more than 5800 nM on TGF-beta receptor type-1 [2]. The same compound displayed a logD in data set [3] (setting [7]) of 2.7.
As to `COc1cc(Nc2cc(Oc3ccc(C)nc3C)ccn2)cc(OC)c1OC`, it took 21 nM to reach half-maximal inhibition at TGF-beta receptor type-1 [2] (IC50). The pH-dependent lipophilicity (logD) in data set [3] (setting [7]) amounted to 3. Further, the bioavailability in “in vivo [4]” was 21%. The compound also had an AUC in the data set “in vivo [5]” of 0.34 µM·h.
In the case of `Cc1cc(Oc2ccnc(Nc3ccc(C(=O)N(C)C)cc3)c2)c(-c2ccccn2)nc1C`, the values for the IC50 against TGF-beta receptor type-1 [1] and against TGF-beta receptor type-1 [2] were 12 nM and 31 nM, respectively. The compound also displayed a logD in data set [3] (setting [7]) of 3.4.
Consider `Cc1ccc(Oc2ccnc(Nc3ccc(S(N)(=O)=O)cc3)c2)c(C)n1`, for which the logD in data set [3] (octanol/water) was found to be 2.5. For the same compound, the clearance in data set [6] is 12 mL/min/kg. The bioavailability in “in vivo [4]” turned out to be 75%. The compound also returned an AUC in “in vivo [5]” of 4.95 µM·h.
Regarding `Cc1cc(Oc2ccnc(Nc3ccc(N4CCOCC4)cc3)c2)c(-c2ccccn2)nc1C`, in data set [3] (setting [7]), the logD amounted to 2.6.
With `Cc1cc(Oc2ccnc(Nc3ccc(F)cc3)c2)c(-c2ccccn2)nc1C`, the half-inhibitory concentration (IC50) at TGF-beta receptor type-1 [1] was 129 nM; against TGF-beta receptor type-1 [2], 63 nM. In data set [3] (setting [7]), this compound came in with a logD of 3.2.
On to `COc1cc(Nc2cc(Oc3ccc(C)nc3)ccn2)cc(OC)c1OC`, for which the results for the concentration for half-maximal inhibition (IC50) against TGF-beta receptor type-1 [1] and at TGF-beta receptor type-1 [2] were 108 nM and 282 nM, respectively. Besides, the logD in data set [3] (octanol/water) was 3.2.
As to `COc1cc(Nc2cc(Oc3cccnc3C)ccn2)cc(OC)c1OC`, the values for the IC50 at TGF-beta receptor type-1 [1] and against TGF-beta receptor type-1 [2] were 107 nM and 628 nM, respectively.
For the compound `COc1cc(Nc2cc(Oc3ccc(C)nc3-c3ccccn3)ccn2)cc(OC)c1OC`, the IC50 at TGF-beta receptor type-1 [1] amounted to 13 nM; against TGF-beta receptor type-1 [2], 20 nM. In addition, in data set [3] (setting [7]), the logD was 3.4.
Turning to `Cc1cc(Oc2ccnc(Nc3ccc(S(N)(=O)=O)cc3)c2)c(-c2ccccn2)nc1C`, the IC50 came out at 21 nM against TGF-beta receptor type-1 [1] and 27 nM against TGF-beta receptor type-1 [2]. The logD in data set [3] (setting [7]) worked out at 2.3. In the data set “in vivo [4]”, this compound showed a bioavailability of 20%. In the data set “in vivo [5]”, this compound gave an AUC of 0.47 µM·h.
Take `COc1ccccc1Nc1cc(Oc2cc(C)c(C)nc2-c2ccccn2)ccn1`: the values for the IC50 at TGF-beta receptor type-1 [1] and against TGF-beta receptor type-1 [2] were 7 nM and 114 nM, respectively. This compound registered a logD in data set [3] (octanol/water) of 3.4.
`COc1cc(Nc2cc(Oc3cc(C)c(C)nc3-c3ccccn3)ccn2)cc(OC)c1OC`: in “in vivo [4]”, the bioavailability stood at 4%.
Turning to `Cc1cc(Oc2ccnc(Nc3ccccc3N3CCOCC3)c2)c(-c2ccccn2)nc1C`, the logD in data set [3] (setting [7]) amounted to 3.1.
The same measure, in the same setting: to `Cc1cc(Oc2ccnc(Nc3cccc(N4CCOCC4)c3)c2)c(-c2ccccn2)nc1C` belongs 3.3.

These data come from ChEMBL document CHEMBL1155219, “Rapid generation of a high quality lead for transforming growth factor-beta (TGF-beta) type I receptor (ALK5)” (J Med Chem, 2009).
